Data as given in patent US10544103B2, “5-HT2 antagonists” (ANAMAR AB, priority 2015, dated 2020).

Tests used:
[1] = target: T1, 5-HT2B receptor (Homo sapiens, UniProt P41595); assay: 5-HT2B receptor binding, 3H-LSD ligand displacement assay; settings: for inhibition at 0.1 µM: 0.1 uM compound; for inhibition at 0.001 µM: 0.001 uM compound; for inhibition at 0.01 µM: 0.01 uM compound
T1 construct: host or cells: CHO-K1
Method: 5-HT2B receptor binding (performed at Eurofins Panlabs Taiwan, Ltd.) to human receptor protein expressed in CHO-K1 cells was determined in a ligand displacement assay using ^3H-lysergic acid diethylamide (LSD) as radioligand and ketanserine as a standard reference compound. Data is presented as % displacement of radioligand at indicated compound concentrations, see Table 1 and Table 2.

[2] = target: T1, 5-HT2B receptor; assay: 5-HT2B receptor antagonism, inhibition of 5-HT stimulated IP-1 accumulation (HTRF) in CHO-K1 cells; assay type: cell-based; settings: % inhibition of 5-HT (5 nM) induced effect
Method: (§1) 5-HT2B receptor antagonism (performed at Eurofins Panlabs Taiwan, Ltd.) was determined in CHO-K1 cells expressing human receptor protein as inhibition of 5-HT (5 nM) stimulated IP-1 accumulation measured by HTRF quantitation. SB 206553 was used as a standard reference compound. The antagonistic response is expressed as % inhibition of the 5-HT induced effect.

[3] = target: T1, 5-HT2B receptor; assay: 5-HT2B receptor agonism, IP-1 accumulation in CHO-K1 cells without prior 5-HT stimulation; assay type: cell-based; settings: % of IP-1 accumulation induced by 5-HT (1 uM)
Method: as §1
5-HT2B receptor agonism (performed at Eurofins Panlabs Taiwan, Ltd.) was determined in the same model as described above in Ex. 117. without prior stimulation with 5-HT. The agonistic response is expressed as % of the IP-1 accumulation induced by 5-HT (1 uM) stimulation.

T1 sequence (P41595 whole entry): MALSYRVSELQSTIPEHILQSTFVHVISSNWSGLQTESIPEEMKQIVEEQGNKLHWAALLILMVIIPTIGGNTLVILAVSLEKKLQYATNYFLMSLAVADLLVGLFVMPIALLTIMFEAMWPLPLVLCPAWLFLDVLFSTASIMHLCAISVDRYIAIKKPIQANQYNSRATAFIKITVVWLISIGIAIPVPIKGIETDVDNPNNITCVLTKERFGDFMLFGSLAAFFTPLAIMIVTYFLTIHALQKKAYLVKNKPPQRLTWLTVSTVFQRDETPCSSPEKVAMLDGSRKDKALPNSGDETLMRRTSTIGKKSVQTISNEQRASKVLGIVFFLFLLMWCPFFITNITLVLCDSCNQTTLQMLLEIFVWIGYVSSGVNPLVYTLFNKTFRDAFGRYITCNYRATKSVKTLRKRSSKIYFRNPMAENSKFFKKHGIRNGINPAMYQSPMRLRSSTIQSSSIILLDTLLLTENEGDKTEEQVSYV

| Compound | inhibition at 0.1 µM [1] | inhibition at 1 µM ([1]; 1 uM compound) | inhibition at 0.001 µM [1] | inhibition at 0.01 µM [1] | further results |
| --- | --- | --- | --- | --- | --- |
| N=C(N)N1CCC(c2cccc3ccccc23)=N1 [Example 9, 3-(Naphthalen-1-yl)-4,5-dihydro-1H-pyrazole-1-carboximidamide] | 81% | 99% |  |  | inhibition at 0.001 µM ([2]; 0.001 uM): 6%; inhibition at 0.01 µM [2]: 20%; inhibition at 0.1 µM [2]: 76%; inhibition at 1 µM [2]: 103%; inhibition at 10 µM [2]: 116%; activation at 0.001 µM ([3]; 0.001 uM): -3%; activation at 0.01 µM [3]: -8%; activation at 0.1 µM [3]: -8%; activation at 1 µM [3]: -13%; activation at 10 µM [3]: -5% |
| CCCCNC(=N)N1CC(C)C(c2cccc(Cl)c2OC)=N1 (centres unmarked) [Example 78, N-butyl-3-(3-chloro-2-methoxyphenyl)-4-methyl-4,5-dihydro-1H-pyrazole-1-carboximidamide] | 98% |  | 49% | 85% |  |
| CCCCNC(=N)N1CC(C)C(c2cccc(Cl)c2O)=N1 (centres unmarked) [Example 79, N-Butyl-3-(3-chloro-2-hydroxyphenyl)-4-methyl-4,5-dihydro-1H-pyrazole-1-carboximidamide] | 94% |  | 79% | 91% |  |
| CC1CN(C(=N)NCc2ccc(Cl)c(Cl)c2)N=C1c1ccccc1O (centres unmarked) [Example 58, N-(3,4-Dichlorobenzyl)-3-(2-hydroxyphenyl)-4-methyl-4,5-dihydro-1H-pyrazole-1-carboximidamide] |  |  | 2% | 52% |  |
| Cc1c(C2=NN(C(=N)N)C(C)C2)oc2ccccc12 (centres unmarked) [Example 28, 5-Methyl-3-(3-methylbenzofuran-2-yl)-4,5-dihydro-1H-pyrazole-1-carboximidamide] | 63% | 95% |  |  |  |
| CC1CN(C(=N)NCc2ccccc2)N=C1c1cccc(Cl)c1O (centres unmarked) [Example 75, N-Benzyl-3-(3-chloro-2-hydroxyphenyl)-4-methyl-4,5-dihydro-1H-pyrazole-1-carboximidamide] |  |  | 76% | 97% |  |
| CC1CC(c2ccccc2Cl)=NN1C(=N)N (centres unmarked) [Example 25, 3-(2-Chlorophenyl)-5-methyl-4,5-dihydro-1H-pyrazole-1-carboximidamide] | 54% | 91% |  |  |  |
| CC1CN(C(=N)NCc2ccccc2Cl)N=C1c1ccccc1O (centres unmarked) [Example 56, N-(2-Chlorobenzyl)-3-(2-hydroxyphenyl)-4-methyl-4,5-dihydro-1H-pyrazole-1-carboximidamide] |  |  | 52% | 95% |  |
| COc1cccc(Cl)c1C1=NN(C(=N)N)CC1 [Example 33, 3-(2-Chloro-6-methoxyphenyl)-4,5-dihydro-1H-pyrazole-1-carboximidamide] | 5% | 37% |  |  |  |
| CC1CN(C(=N)NCCc2ccccc2)N=C1c1ccccc1O (centres unmarked) [Example 65, 3-(2-hydroxyphenyl)-4-methyl-N-phenethyl-4,5-dihydro-1H-pyrazole-1-carboximidamide] |  |  | 48% | 89% |  |
| CC1CN(C(=N)NCC(F)(F)C(F)(F)C(F)(F)F)N=C1c1ccccc1O (centres unmarked) [Example 93, N-(2,2,3,3,4,4,4-Heptafluorobutyl)-3-(2-hydroxyphenyl)-4-methyl-4,5-dihydro-1H-pyrazole-1-carboximidamide] | 98% |  | 21% | 80% |  |
| COc1ccccc1C1=NN(C(=N)Nc2ccccc2)CC1C (centres unmarked) [Example 96, 3-(2-Methoxyphenyl)-4-methyl-N-phenyl-4,5-dihydro-1H-pyrazole-1-carboximidamide] | 93% |  | 19% | 43% |  |
| CC1CN(C(=N)Nc2ccc(F)cc2)N=C1c1cccc(Cl)c1O (centres unmarked) [Example 109, 3-(3-Chloro-2-hydroxyphenyl)-N-(4-fluorophenyl)-4-methyl-4,5-dihydro-1H-pyrazole-1-carboximidamide] | 104% |  | 72% | 99% |  |
| COc1c(Cl)cccc1C1=NN(C(=N)N)CC1C (centres unmarked) [Example 53, 3-(3-Chloro-2-methoxyphenyl)-4-methyl-4,5-dihydro-1H-pyrazole-1-carboximidamide] | 87% | 100% |  | 40% |  |
| CC1CN(C(=N)N)N=C1c1cccc(F)c1O (centres unmarked) [Example 48, 3-(3-Fluoro-2-hydroxyphenyl)-4-methyl-4,5-dihydro-1H-pyrazole-1-carboximidamide] | 85% | 95% |  | 54% |  |
| Cc1ccccc1C1=NN(C(=N)N)CC1 [Example 6, 3-(2-Methylphenyl)-4,5-dihydro-1H-pyrazole-1-carboximidamide] |  | 89% |  |  | inhibition at 10 µM ([1]; 10 uM compound): 99% |
| CC1CC(c2c(F)cccc2F)=NN1C(=N)N (centres unmarked) [Example 26, 3-(2,6-Difluorophenyl)-5-methyl-4,5-dihydro-1H-pyrazole-1-carboximidamide] | 7% | 55% |  |  |  |
| N=C(N)N1CCC(c2ccccc2N)=N1 [Example 31, 3-(2-Aminophenyl)-4,5-dihydro-1H-pyrazole-1-carboximidamide] | 21% | 69% |  |  |  |
| CC1CN(C(=N)NCC(F)(F)F)N=C1c1ccccc1O (centres unmarked) [Example 95, 3-(2-Hydroxyphenyl)-4-methyl-N-(2,2,2-trifluoroethyl)-4,5-dihydro-1H-pyrazole-1-carboximidamide] | 96% |  | 12% | 70% |  |
| CC1CN(C(=N)Nc2ccc(Cl)cc2)N=C1c1cccc(Cl)c1O (centres unmarked) [Example 111, 3-(3-Chloro-2-hydroxyphenyl)-N-(4-chlorophenyl)-4-methyl-4,5-dihydro-1H-pyrazole-1-carboximidamide] | 101% |  | 80% | 99% |  |
| CC1CN(C(=N)NO)N=C1c1ccccc1O (centres unmarked) [Example 44, N-Hydroxy-3-(2-hydroxyphenyl)-4-methyl-4,5-dihydro-1H-pyrazole-1-carboximidamide] | 85% | 94% | 12% | 30% |  |
| COc1ccccc1C1=NN(C(=N)N)CC1 [Example 1, 3-(2-Methoxyphenyl)-4,5-dihydro-1H-pyrazole-1-carboximidamide] |  |  |  |  | inhibition at 0.01 µM [2]: 2%; inhibition at 0.1 µM [2]: 0%; inhibition at 1 µM [2]: 72%; inhibition at 10 µM [2]: 107%; activation at 0.01 µM [3]: -1%; activation at 0.1 µM [3]: -8%; activation at 1 µM [3]: -5%; activation at 10 µM [3]: -1% |
| N=C(N)N1CCC(c2ccccc2F)=N1 [Example 11, 3-(2-Fluorophenyl)-4,5-dihydro-1H-pyrazole-1-carboximidamide] | 10% | 53% |  |  |  |
| COc1ccccc1C1=NN(C(=N)N)CC1C (centres unmarked) [Example 18, 3-(2-Methoxyphenyl)-4-methyl-4,5-dihydro-1H-pyrazole-1-carboximidamide] |  | 89% |  |  | inhibition at 10 µM ([1]; 10 uM compound): 101% |
| CCCCCCNC(=N)N1CC(C)C(c2cccc(Cl)c2O)=N1 (centres unmarked) [Example 81, 3-(3-Chloro-2-hydroxyphenyl)-N-hexyl-4-methyl-4,5-dihydro-1H-pyrazole-1-carboximidamide] | 97% |  | 62% | 96% |  |
| COc1ccc(NC(=N)N2CC(C)C(c3ccccc3OCc3ccccc3)=N2)cc1 (centres unmarked) [Example 104, 3-(2-(Benzyloxy)phenyl)-N-(4-methoxyphenyl)-4-methyl-4,5-dihydro-1H-pyrazole-1-carboximidamide] | 77% |  | -9% | 33% |  |
| CCOC(=O)NC(=N)N1CC(C)C(c2cccc(Cl)c2O)=N1 (centres unmarked) [Example 119, Ethyl ((3-(3-chloro-2-hydroxyphenyl)-4-methyl-4,5-dihydro-1H-pyrazol-1-yl)(imino)methyl)carbamate] | 89% | 99% |  | 50% |  |
| (R)-3-(2-Hydroxyphenyl)-4-methyl-4,5-dihydro-1H-pyrazole-1-carboximidamide [Example 36] |  |  |  |  | 5-HT2B receptor binding (% displacement) ([1]; 1 uM compound): 90%; 5-HT2B receptor binding (% displacement) ([1]; 10 uM compound): 99% |
| CC1CN(C(=N)N)N=C1c1ccnc2ccccc12 (centres unmarked) [Example 71, 4-Methyl-3-(quinolin-4-yl)-4,5-dihydro-1H-pyrazole-1-carboximidamide] | 20% | 43% |  | 11% |  |
